Experimental data from patent US20090181986A1, “SUBSTITUTED HETEROCYCLIC COMPOUNDS” (priority 2007, published 2009).

How the values were obtained:
L-type calcium channel = L-type calcium channel activity well-plate assay (IMR-32 cells, Ca-4 dye, FlexStation); assay type: cell-based, human
Description: Cell Culture: IMR-32 (human neuroblastoma) cells were obtained from The American Type Culture Collection. The cells were maintained in MEM supplemented with 10% fetal bovine serum, 2 mM of L-glutamine, 100 IU/ml of penicillin, 50 μg/ml of streptomycin, 1% of sodium pyruvate, 1% of sodium bicarbonate and 1% of non-essential amino acid. […] Culture medium was changed every two days and cells were recultivated when they reached 70-80% confluent.
Assay: IMR-32 cells were seeded on a Microtest 96-well Assay Plate (BD FALCON™) at a density of 200,000 cells/well in 200 μl culture medium for overnight. The culture medium was removed, and replaced by 120 μl Ca-4 dye (MDS Analytical Technologies, Sunnyvale, Calif.) in HBSS (1× Hank's Balanced Salt solution plus 20 mM HEPES, pH 7.4) containing 2 mM probenecid. Cells were then incubated for 1 hour at 37° in incubator. Testing compounds were diluted from 5 μM-50 μM in HBSS, and 40 μl were added in cells before assay. […] The inhibition of L-type calcium channel activity by compounds was then calculated.

hERG potassium channel = hERG potassium channel (Homo sapiens, UniProt Q12809); assay: hERG screening assay (PatchXpress patch clamp, CHO cells)
Sequence of hERG potassium channel (Q12809 whole entry): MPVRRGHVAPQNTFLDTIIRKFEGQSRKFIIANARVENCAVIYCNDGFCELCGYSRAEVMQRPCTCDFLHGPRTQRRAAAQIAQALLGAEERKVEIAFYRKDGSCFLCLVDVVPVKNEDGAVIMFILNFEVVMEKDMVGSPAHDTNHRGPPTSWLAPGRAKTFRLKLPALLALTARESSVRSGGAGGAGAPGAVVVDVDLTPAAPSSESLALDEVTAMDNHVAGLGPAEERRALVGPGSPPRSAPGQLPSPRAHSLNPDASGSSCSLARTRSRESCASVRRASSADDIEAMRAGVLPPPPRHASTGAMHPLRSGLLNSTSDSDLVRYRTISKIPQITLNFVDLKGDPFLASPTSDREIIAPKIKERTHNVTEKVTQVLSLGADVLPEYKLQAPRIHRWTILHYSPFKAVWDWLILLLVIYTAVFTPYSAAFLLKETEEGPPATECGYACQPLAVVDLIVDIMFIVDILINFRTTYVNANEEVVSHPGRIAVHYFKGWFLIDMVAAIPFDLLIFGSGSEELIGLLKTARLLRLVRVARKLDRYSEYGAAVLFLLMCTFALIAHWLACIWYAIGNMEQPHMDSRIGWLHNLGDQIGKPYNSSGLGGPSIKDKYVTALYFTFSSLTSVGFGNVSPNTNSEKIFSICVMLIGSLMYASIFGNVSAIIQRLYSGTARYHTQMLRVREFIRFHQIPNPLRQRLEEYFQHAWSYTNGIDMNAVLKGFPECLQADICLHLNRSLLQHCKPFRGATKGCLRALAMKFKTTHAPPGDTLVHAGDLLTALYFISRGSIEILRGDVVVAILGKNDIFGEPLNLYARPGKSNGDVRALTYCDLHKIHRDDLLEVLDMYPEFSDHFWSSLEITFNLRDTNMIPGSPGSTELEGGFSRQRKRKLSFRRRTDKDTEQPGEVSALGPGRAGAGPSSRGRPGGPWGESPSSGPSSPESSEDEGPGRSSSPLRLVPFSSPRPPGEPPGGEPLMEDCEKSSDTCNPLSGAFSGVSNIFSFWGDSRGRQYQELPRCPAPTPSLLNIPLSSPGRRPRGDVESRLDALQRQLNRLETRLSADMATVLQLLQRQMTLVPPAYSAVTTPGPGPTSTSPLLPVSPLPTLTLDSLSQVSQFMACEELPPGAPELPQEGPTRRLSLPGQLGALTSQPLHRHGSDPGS
Description: Compounds were screened to test their activity in blocking the hERG potassium channel. The hERG channel is heterologously expressed in a CHO (Chinese Hamster Ovary) cell line. Cells are maintained with standard tissue culture procedures and stable channel expression is maintained with 500 μg/ml G418 in the culture medium. Cells are harvested for testing on the PatchXpress automated patch clamp with Acctumax (Innovative Cell Technologies, San Diego, Calif.) to isolate single cells.
The following solutions are used for electrophysiological recordings. The external solution contains: 2 mM CaCl2; 2 mM MgCl2; 4 mM KCl; 150 mM NaCl; 10 mM Glucose; 10 mM HEPES (pH 7.4 with 1M NaOH, osmolarity).
hERG channels are activated when the voltage is stepped to +20 mV from the −80 mV holding potential (see FIG. 3). During a 5 second step at +20 mV, the channels activate and then largely inactivate, so the currents are relatively small. Upon returning to −50 mV from +20 mV, hERG currents transiently become much larger as inactivation is rapidly removed and then the channel closes. The first step to −50 mV for 300 ms is used as a baseline for measuring the peak amplitude during the step to −50 mV after channel activation. The peak current at −50 mV is measured both under control conditions and after addition of compound.
All compounds are prepared as 10 mM DMSO stocks in glass vials. Stock solutions are mixed by vigorous vortexing and sonication for about 2 minutes at room temperature. For testing, compounds are diluted in glass vials using an intermediate dilution step in pure DMSO and then further diluted to working concentrations in external solution. Dilutions are prepared no longer than 20 minutes before use.
After achieving the whole-cell configuration, cells are monitored for 90 seconds to assess stability and washed with external solution for 66 seconds. The voltage protocol described above is then applied to the cells every 12 seconds and throughout the whole procedure. Only cells with stable recording parameters and meeting specified health criteria are allowed to enter the compound addition procedure.
External solution containing 0.1% DMSO (vehicle) is applied to the cells first to establish the control peak current amplitude. After allowing the current to stabilize for 3 to 5 minutes, 1 μM and then 10 μM test compounds are applied. Each compound concentration is added 4 times and cells are kept in test solution until the effect of the compound reaches steady state or for a maximum of 12 minutes. […] Washout in the external solution compartment is performed until the recovery of the current reaches steady state. Data are analyzed using DataXpress, Clampfit (Molecular Devices, Inc., Sunnyvale) and Origin 7 (Originlab Corp.)

| Structure (SMILES) | CaL Plate Assay % blk (1 μM test cmpd) (L-type calcium channel) [%] | CaL Plate Assay % blk (10 μM test cmpd) (L-type calcium channel) [%] | hERG Patch Clamp hERG % blk (1 μM test cmpd) (hERG potassium channel) [%] | hERG Patch Clamp hERG % blk (10 μM test cmpd) (hERG potassium channel) [%] |
| --- | --- | --- | --- | --- |
| CCOC(=O)C1=C(C)Nc2nnnn2C1c1ccc2ccccc2c1 (centres unmarked) [PT-008, ethyl 5-methyl-7-(naphthalen-2-yl)-4,7-dihydrotetrazolo[1,5-a]pyrimidine-6-carboxylate] | 0 | 9 | 10 | 33.5 |
| CC1=C(C(=O)OCC(F)(F)F)C(c2cccc3ccccc23)n2nnnc2N1 (centres unmarked) [PT-014, 2,2,2-trifluoroethyl 5-methyl-7-(naphthalen-1-yl)-4,7-dihydrotetrazolo[1,5-a]pyrimidine-6-carboxylate] | 0 | 40 | – | – |
| CC1=C(C(=O)OCc2ccccc2)C(c2cccc3ccccc23)n2nnnc2N1 (centres unmarked) [PT-027, benzyl 5-methyl-7-(naphthalen-1-yl)-4,7-dihydrotetrazolo[1,5-a]pyrimidine-6-carboxylate] | 0 | 0 | 14 | 64.5 |
| CC1=C(C(=O)OCc2ccccc2)C(c2c3ccccc3cc3ccccc23)n2nnnc2N1 (centres unmarked) [PT-039, benzyl 7-(anthracen-9-yl)-5-methyl-4,7-dihydrotetrazolo[1,5-a]pyrimidine-6-carboxylate] | 2 | 0 | 10 | 27.5 |
| CC1=C(C(=O)OCc2ccccc2)C(c2cccs2)n2nnnc2N1 (centres unmarked) [PT-040, benzyl 5-methyl-7-(thiophen-2-yl)-4,7-dihydrotetrazolo[1,5-a]pyrimidine-6-carboxylate] | 0 | 18 | 14.5 | 24.5 |
| CC1=C(C(=O)OCc2ccccc2)C(c2csc3ccccc23)n2nnnc2N1 (centres unmarked) [PT-042, benzyl 7-(benzo[b]thiophen-3-yl)-5-methyl-4,7-dihydrotetrazolo[1,5-a]pyrimidine-6-carboxylate] | 0 | 16 | 11 | 52.5 |
| CC1=C(C(=O)OCc2ccccc2)C(c2cc3ccccc3s2)n2nnnc2N1 (centres unmarked) [PT-043, benzyl 7-(benzo[b]thiophen-2-yl)-5-methyl-4,7-dihydrotetrazolo[1,5-a]pyrimidine-6-carboxylate] | 23 | 60 | – | – |
| CC1=C(C(=O)OCc2ccccc2)C(c2sc3ccccc3c2C)n2nnnc2N1 (centres unmarked) [PT-044, benzyl 5-methyl-7-(3-methylbenzo[b]thiophen-2-yl)-4,7-dihydrotetrazolo[1,5-a]pyrimidine-6-carboxylate] | 7 | 35 | 16.5 | 40 |
| CC1=C(C(=O)OCc2ccccc2)C(c2cc3ccccc3o2)n2nnnc2N1 (centres unmarked) [PT-045, benzyl 7-(benzofuran-2-yl)-5-methyl-4,7-dihydrotetrazolo[1,5-a]pyrimidine-6-carboxylate] | 0 | 98 | 10 | 70 |
| CC1=C(C(=O)O[C@@H](C)c2ccccc2)C(c2cccc3ccccc23)n2nnnc2N1 (stereo partly drawn) [PT-048, (S)-1-phenylethyl 5-methyl-7-(naphthalen-1-yl)-4,7-dihydrotetrazolo[1,5-a]pyrimidine-6-carboxylate] | 0 | 74 | – | – |
| CC1=C(C(=O)OC2CCc3ccccc32)C(c2cccc3ccccc23)n2nnnc2N1 (centres unmarked) [PT-062, 2,3-dihydro-1H-inden-1-yl 5-methyl-7-(naphthalen-1-yl)-4,7-dihydrotetrazolo[1,5-a]pyrimidine-6-carboxylate] | 51 | – | – | 14 |
| N#CC1=C(N)NC2=C(C(=O)CCC2)C1c1ccc(Br)cc1 (centres unmarked) [PT-095, 2-amino-4-(4-bromophenyl)-5-oxo-1,4,5,6,7,8-hexahydroquinoline-3-carbonitrile] | 0 | 15 | 10 | 24.5 |
| N#CC1=C(N)OC2=C(C(=O)CCC2)C1c1ccc(Br)cc1 (centres unmarked) [PT-096, 2-amino-4-(4-bromophenyl)-5-oxo-5,6,7,8-tetrahydro-4H-chromene-3-carbonitrile] | 8 | 39 | 15 | 48 |
| N#CC1=C(N)OC2=C(C(=O)CCC2)C1c1ccsc1 (centres unmarked) [PT-100, 2-amino-5-oxo-4-(thiophen-3-yl)-5,6,7,8-tetrahydro-4H-chromene-3-carbonitrile] | 0 | 0 | 10 | 16.5 |
| N#CC1=C(N)OC2=C(C(=O)CC(c3ccccc3)C2)C1c1cccs1 (centres unmarked) [PT-101, 2-amino-5-oxo-7-phenyl-4-(thiophen-2-yl)-5,6,7,8-tetrahydro-4H-chromene-3-carbonitrile] | 6 | 47 | 19 | 67.5 |
| N#CC1=C(N)OC2=C(C(=O)CC(c3ccccc3)C2)C1c1ccsc1 (centres unmarked) [PT-102, 2-amino-5-oxo-7-phenyl-4-(thiophen-3-yl)-5,6,7,8-tetrahydro-4H-chromene-3-carbonitrile] | 6 | 51 | – | – |
| N#CC1=C(N)OC2=C(C(=O)CC(c3ccccc3)C2)C1c1ccco1 (centres unmarked) [PT-104, 2-amino-4-(furan-2-yl)-5-oxo-7-phenyl-5,6,7,8-tetrahydro-4H-chromene-3-carbonitrile] | 0 | 27 | 18 | 46 |
| CCOC(=O)C1=C(C)NC(C)=C(C(=O)OCC)C1c1ccc2ccccc2c1 [PT-107, diethyl 2,6-dimethyl-4-(naphthalen-2-yl)-1,4-dihydropyridine-3,5-dicarboxylate] | 10 | 44 | 11.5 | 48 |
| CCOC(=O)C1=C(C)NC(C)=C(C(=O)OCC)C1c1ccsc1 [PT-110, diethyl 2,6-dimethyl-4-(thiophen-3-yl)-1,4-dihydropyridine-3,5-dicarboxylate] | 86 | 88 | – | – |
| CCOC(=O)C1=C(C)NC(C)=C(C(=O)OCC)C1c1cccs1 [PT-111, diethyl 2,6-dimethyl-4-(thiophen-2-yl)-1,4-dihydropyridine-3,5-dicarboxylate] | 75 | 79 | 11.5 | 48.5 |
| CCOC(=O)C1=C(C)NC(C)=C(C(=O)OCC)C1c1csc2ccccc12 [PT-115, diethyl 4-(benzo[b]thiophen-3-yl)-2,6-dimethyl-1,4-dihydropyridine-3,5-dicarboxylate] | 52 | 65 | – | – |
| CCOC(=O)C1=C(C)NC(C)=C(C(=O)OCC)C1c1ccc(CC)o1 [PT-121, diethyl 4-(5-ethylfuran-2-yl)-2,6-dimethyl-1,4-dihydropyridine-3,5-dicarboxylate] | 35 | 72 | – | – |
| CCOC(=O)C1=C(C)NC2=C(C(=O)CCC2)C1c1ccc(C)c2ccccc12 (centres unmarked) [PT-135, ethyl 2-methyl-4-(4-methylnaphthalen-1-yl)-5-oxo-1,4,5,6,7,8-hexahydroquinoline-3-carboxylate] | 24 | 62 | – | – |
| CCCC1=C(C(=O)OCC)C(c2ccsc2)C2=C(CC(c3ccco3)CC2=O)N1 (centres unmarked) [PT-150, ethyl 7-(furan-2-yl)-5-oxo-2-propyl-4-(thiophen-3-yl)-1,4,5,6,7,8-hexahydroquinoline-3-carboxylate] | 4 | 71 | – | – |
| CC1=C(C(=O)OC(C)C)C(c2ccc3ccccc3c2)C2=C(CCCC2=O)N1 (centres unmarked) [PT-157, isopropyl 2-methyl-4-(naphthalen-2-yl)-5-oxo-1,4,5,6,7,8-hexahydroquinoline-3-carboxylate] | 3 | 43 | – | – |
| CC1=C(C(=O)NCCCCc2ccccc2)C(c2ccsc2)C2=C(CCCC2=O)N1 (centres unmarked) [PT-164, 2-methyl-5-oxo-N-(4-phenylbutyl)-4-(thiophen-3-yl)-1,4,5,6,7,8-hexahydroquinoline-3-carboxamide] | 20 | 77 | – | – |
